Patent US7179920B2, “3-thia-4-arylquinolin-2-one derivatives” (Bristol-Myers Squibb Company, priority 2003, dated 2007)

What was measured:
[1] = system: cloned mammalian (mSlo or hSlo) BK (Maxi-K) channel; assay: Assay for BK channel openers: two-electrode voltage clamp of BK-mediated outward current in Xenopus oocytes; type: cell-based; conditions: voltage step to +140 mV
Source text: The experimental media (modified Barth's solution) consisted of millimolar (“mM”): NaCl (88), NaHCO3 (2.4), KCl (1.0), HEPES (10), MgSO4 (0.82), Ca(NO3)2 (0.33), CaCl2 (0.41); pH 7.5.

[2] = system: rabbit corpus cavernosum tissue; assay: Rabbit corpus cavernosum strips: relaxation of phenylephrine-induced force; conditions: Oryctolagus cuniculus; inhibition of phenylephrine (3 μM)-induced force as compared to vehicle control; read-out: % Inhibition of force (RCC strips)
Protocol: The ability of the compounds of the invention to relax rabbit corpus cavernosum tissue as a model for the treatment of erectile dysfunction is described as follows. New Zealand white rabbits (3.4–3.7 kg) were euthanized by sodium pentobarbital (100 mg/kg) overdose. The penis from each animal was rapidly removed and immersed in a cold oxygenated modified Krebs Henseleit bicarbonate buffer. The penis' outer tunica was removed and the corpus cavernosum smooth muscle obtained and cut into strips approximately 3–5 mm long. The strips were suspended in tissue baths containing physiological salt solution (see above), and allowed to equilibrate for at least one hour under resting tension of 1.0 gram. Isometric force was measured as described above. Tissue strips were stimulated with the α-agonist phenylephrine (3 μM) and allowed to reach a steady level of force prior to the addition of test compounds. The results are expressed as the percentage inhibition of phenylephrine-induced force as compared to vehicle control.

[3] = system: rat small intestine tissue; assay: Rat small intestine (ileum) strips: inhibition of nifedipine-sensitive force; conditions: integral of nifedipine-sensitive force, 30 min post-compound
Source text: The ability of the compounds of the invention to relax rat small intestine tissue as a model for the treatment of irritable bowel syndrome is described as follows. Male rats (Harlan, Sprague Dawley, 250–350 g) were sacrificed by decapitation. A portion of small intestine (ileum) was removed and the attached connective tissues and intestinal contents removed. The ileum was cut into segments of ≦1 cm in length. The segments were mounted longitudinally between fixed hooks in organ baths containing warm (37° C.) physiological salt solution (composition in mM: NaCl 118.4, KCl 4.7, KH2PO4 1.2, MgSO4 1.2, CaCl2 1.8, Glucose 10.1, NaHCO3 25; gassed with 95% O2/5% CO2, pH 7.4). A stable tension of ˜1.5 g was maintained in the tissue segments during the equilibration period of 45 minutes. Changes in muscle tension were measured with isometric force transducers (Grass, FT-03C) and recorded using AcqKnowledge data acquisition system (AcqKnowledge for MP100WS, Biopac Systems Inc., Goleta, Calif.). Compound or vehicle was added in the baths for 30 minutes. “Zero” active force was established at the end of the experiment using nifedipine (20 μM). The effects of compounds or vehicle on force was determined by measuring the integral of nifedipine-sensitive force (including resting tone and spontaneous contractions) pre- and 30 min post-compound (or vehicle) addition. Results are expressed as the percentage inhibition of force. DMSO vehicle inhibited force (integral) by −0.6±3.0% (n=25).

[4] = at 20 μM, percent increase over BK current in controls
[5] = at 1 μM, percent increase over BK current in controls

| Compound | % MaxiK opening [1, 4] [%] | inhibition [2] [%] | melting point [°C] | other results |
| --- | --- | --- | --- | --- |
| COc1ccc(Cl)cc1-c1c(SCC(=O)O)c(=O)[nH]c2ccc(C(F)(F)F)cc12 [Example 1] | 155 | 14 | 235 | – |
| COc1ccc(Cl)cc1-c1c(S)c(=O)[nH]c2ccc(C(F)(F)F)cc12 [Example 9, 4-(5-Chloro-2-methoxyphenyl)-3-mercapto-6-trifluoromethyl-1H-quinolin-2-one] | – | – | 239 to 241 | % MaxiK opening [1, 5]: 149^⋄ % |
| CCNC(=O)NCCSc1c(-c2cc(Cl)ccc2O)c2cc(C(F)(F)F)ccc2[nH]c1=O [Example 7, 1-{2-[4-(5-Chloro-2-hydroxy-phenyl)-2-oxo-6-trifluoromethyl-1,2-dihydro-quinolin-3-ylsulfanyl]-ethyl}-3-ethyl-urea] | – | – | – | % MaxiK opening ([1]; marked ⋄⋄ (concentration footnote not given)): 160^⋄⋄ % |
| COCCSc1c(-c2cc(Cl)ccc2O)c2cc(C(F)(F)F)ccc2[nH]c1=O [Example 12, 4-(5-Chloro-2-hydroxyphenyl)-3-(2-methoxyethylsulfanyl)-6-trifluoromethyl-1H-quinolin-2-one] | – | – | – | % MaxiK opening [1, 5]: 208^⋄ % |
| COc1ccc(Cl)cc1-c1c(S/C=C/CO)c(=O)[nH]c2ccc(C(F)(F)F)cc12 [Example 21] | – | – | 148 to 150 | % MaxiK opening [1, 5]: 135^⋄ % |
| COc1ccc(Cl)cc1-c1c(SCCO)c(=O)[nH]c2ccc(C(F)(F)F)cc12 [Example 16, 4-(5-Chloro-2-methoxyphenyl)-3-(2-hydroxyethylsulfanyl)-6-trifluoromethyl-1H-quinolin-2-one] | 149 | – | 98 to 100 | – |
| NC(=O)NCCSc1c(-c2cc(Cl)ccc2O)c2cc(C(F)(F)F)ccc2[nH]c1=O [Example 5, 1-{2-[4-(5-Chloro-2-hydroxy-phenyl)-2-oxo-6-trifluoromethyl-1,2-dihydro-quinolin-3-ylsulfanyl]-ethyl}urea] | 165 | 65 | – | % Inhibition of force (RSI strips) [3]: 21% |
| COc1ccc(Cl)cc1-c1c(SCC(O)CO)c(=O)[nH]c2ccc(C(F)(F)F)cc12 (centres unmarked) [Example 20, 4-(5-Chloro-2-methoxyphenyl)-3-(2,3-dihydroxypropylsulfanyl)-6-trifluoromethyl-1H-quinolin-2-one] | 178 | – | 110 to 114 | – |
| O=c1[nH]c2ccc(C(F)(F)F)cc2c(-c2cc(Cl)ccc2O)c1SCC(O)CO (racemic) [Example 17, (±)-4-(5-Chloro-2-hydroxyphenyl)-3-(2,3-dihydroxypropylsulfanyl)-6-trifluoromethyl-1H-quinolin-2-one] | 246 | 31 | 178 to 180 | % Inhibition of force (RSI strips) [3]: 6% |
| COc1ccc(Cl)cc1-c1c(SCCNC(N)=O)c(=O)[nH]c2ccc(C(F)(F)F)cc12 [Example 4, 1-{2-[4-(5-Chloro-2-methoxy-phenyl)-2-oxo-6-trifluoromethyl-1,2-dihydro-quinolin-3-ylsulfanyl]-ethyl}urea] | 140 | – | – | – |
| O=c1[nH]c2ccc(C(F)(F)F)cc2c(-c2cc(Cl)ccc2O)c1SCCCO [Example 14, 4-(5-Chloro-2-hydroxyphenyl)-3-(3-hydroxypropylsulfanyl)-6-trifluoromethyl-1H-quinolin-2-one] | 242 | 23 | 178 to 180 | – |
| N#CCCCSc1c(-c2cc(Cl)ccc2O)c2cc(C(F)(F)F)ccc2[nH]c1=O [Example 13, 4-[4-(5-Chloro-2-hydroxyphenyl)-2-oxo-6-trifluoromethyl-1,2-dihydro-quinolin-3-ylsulfanyl]butyronitrile] | 198 | – | 217 | – |
| N#CCCSc1c(-c2cc(Cl)ccc2O)c2cc(C(F)(F)F)ccc2[nH]c1=O [Example 11, 3-[4-(5-Chloro-2-hydroxyphenyl)-2-oxo-6-trifluoromethyl-1,2-dihydro-quinolin-3-ylsulfanyl]propionitrile] | 189 | – | 140 | – |
| O=c1[nH]c2ccc(C(F)(F)F)cc2c(-c2cc(Cl)ccc2O)c1SC[C@H](O)CO [Example 19, (R)-4-(5-Chloro-2-hydroxyphenyl)-3-(2,3-dihydroxypropylsulfanyl)-6-trifluoromethyl-1H-quinolin-2-one] | 256 | 41 | – | – |
| O=c1[nH]c2ccc(C(F)(F)F)cc2c(-c2cc(Cl)ccc2O)c1SC[C@@H](O)CO [Example 18, (S)-4-(5-Chloro-2-hydroxyphenyl)-3-(2,3-dihydroxypropylsulfanyl)-6-trifluoromethyl-1H-quinolin-2-one] | 223 | 45 | – | – |
| CCNC(=O)NCCSc1c(-c2cc(Cl)ccc2OC)c2cc(C(F)(F)F)ccc2[nH]c1=O [Example 3, 1-{2-[4-(5-Chloro-2-methoxy-phenyl)-2-oxo-6-trifluoromethyl-1,2-dihydro-quinolin-3-ylsulfanyl]-ethyl}-3-ethyl-urea] | 123 | – | – | % Inhibition of force (RSI strips) [3]: 17b % |
| COc1ccc(Cl)cc1-c1c(SCCCO)c(=O)[nH]c2ccc(C(F)(F)F)cc12 [Example 15, 4-(5-Chloro-2-methoxyphenyl)-3-(3-hydroxypropylsulfanyl)-6-trifluoromethyl-1H-quinolin-2-one] | 140 | – | 211 | – |
| O=c1[nH]c2ccc(C(F)(F)F)cc2c(-c2cc(Cl)ccc2O)c1S [Example 8, 4-(5-Chloro-2-hydroxyphenyl)-3-mercapto-6-trifluoromethyl-1H-quinolin-2-one] | 197 | – | – | – |
| CNC(=O)NCCSc1c(-c2cc(Cl)ccc2O)c2cc(C(F)(F)F)ccc2[nH]c1=O [Example 6, 1-{2-[4-(5-Chloro-2-hydroxy-phenyl)-2-oxo-6-trifluoromethyl-1,2-dihydro-quinolin-3-ylsulfanyl]-ethyl}-3-methyl-urea] | 176 | – | – | – |
| O=c1[nH]c2ccc(C(F)(F)F)cc2c(-c2cc(Cl)ccc2O)c1SCCO [Example 10, 4-(5-Chloro-2-hydroxyphenyl)-3-(2-hydroxyethylsulfanyl)-6-trifluoromethyl-1H-quinolin-2-one] | 348 | 43 | 278 to 279 | – |
